Measured values from patent US20030158251A1, “Methods, pharmaceutical compositions and articles of manufacture for treating disorders associated with abnormal cell proliferation and apoptosis” (priority 2002, published 2003).
Where a SMILES comes first, the peptide text is derived from it. The star is where a group is joined. Cbz = O=C(OCc1ccccc1)*

What was measured:
[1] = test system: M1-t-p53 myeloid leukemic cells; assay: cells
Protocol: Cell viability was determined 23 h after culture at 32° C.
(§1) The cell lines used were: HCT116 human colon carcinoma cells, HCT116 HA-NQO1 over-expressing cells (45), p53 null HCT116 cells (Bunz, F., Dutiaux, A., Lengauer, C., Waldman, T., Zhou, S., Brown, J. P., Sedivy, J. M., Kinzler, K. W. & Vogelstein, B. (1998) Science 282, 1497-1501.), COS 1 monkey kidney cells, normal thymocytes obtained from 2.5 month old Balb/C mice and M1-t-p53 mouse myeloid leukemic cells that express a temperature-sensitive mutant p53 [Val-135] protein (Yonish-Rouach, E., Resnitzky, D., Lotem, J., Sachs, L., Kimchi, A. & Oren, M. (1991) Nature 352, 345-347).
(§2) The p53 in M1-t-p53 cells behaves like a tumor-suppressing wild-type p53 at 32° C. and like a mutant p53 at 37° C. (24). HCT116 and COS 1 cells were grown in Dulbecco's modified Eagle's medium (DMEM) supplemented with 10% fetal bovine serum (FBS), […] penicillin, and 100 µg/ml streptomycin and cultured at 37° C. in a humidified incubator with 5.6% C02. Normal thymocytes and M1-t-p53 cells were grown in DMEM supplemented with 10% heat inactivated (56° C., 30 min) horse serum and cultured at 37° C. in an incubator with 10% […].
(§3) Apoptosis in normal thymocytes was induced by gamma irradiation 4 Gy (Co^60 source 0.63 Gy/min) and in M1-t-p53 cells by culture at 32° C. The percentage of apoptotic thymocytes was determined on May-Grünwald-Giemsa-stained cytospin preparations by counting 400 cells 5 hrs post gamma-irradiation. Apoptotic cells were scored by their smaller size, condensed chromatin, and fragmented nuclei compared with non-apoptotic cells. Analysis of DNA fragmentation during apoptosis in thymocytes was performed by DNA agarose gel electophoresis as described (27). Apoptotic M1-t-p53 cells undergo secondary changes including uptake of trypan-blue (28). The percent of viable cells (non apoptotic and not stained with trypan-blue) was determined by counting 400 cells in a hemocytometer after 23 hrs at 32° C.
(§4) These cells are viable and proliferate at 37° C. when the p53 behaves like a mutant form, but undergo apoptosis at 32° C. when the p53 behaves like wild-type (3).

[2] = test system: thymocytes; assay: Dexamethasone induced apoptosis in thymocytes; assay type: cell-based, mouse; conditions: for apoptotic cells: dexamethasone treated thymocytes, from 42±3% without inhibitor
Excerpt: Accumulation of p53 in γ-irradiated or doxorubicin treated 7-M12 myeloid leukemic cells (28) induces expression of mdm2 and waf-1.

[3] = test system: p53; assay: Immunoblot of p53 level in M1-t-p53 cells; assay type: cell-based, mouse
Protocol: Immunoblot analysis was carried out using Pab 240 monoclonal anti p53 antibody. The blots were then stripped and re-probed with anti I-kappa-B and anti beta-tubulin antibody.
Immunoblot analysis was carried out using Pab 240 monoclonal anti p53 antibody and hamster anti mouse Bcl-2. FIG. 11a is an immunoblot of cell extracts from M1-t-p53 myeloid leukemic cells cultured for 6h at 32° C. or 37° C. without or with different concentrations of radicicol. Antibodies are indicated at left. FIG. 11b is an immunoblot of cell extracts from cells cultured at 32° C. for 6 or 2 h without (−) or with (+) 1 μM radicicol. Cells were also preincubated for 4 h at 32° C. and then cultured with 1 μM radicicol or 1 μM geldanamycin (geldan.) for 2 h (2 h*).
as §1, §2
(§5) Cell extracts were prepared by lysis of PBS-washed cells in RIPA lysis buffer [150 mM NaCl, 1% NP-40 (vol/vol), 0.5% AB-deoxycholate (DOC vol/vol), 0.1% SDS (vol/vol), 50 mM Tris-Hcl pH 8, 1 mM dithiotireitol (DTT) and 1 micogram/ml each of leupeptin, aprotinin, pepstatin (Sigma cocktail)]. The insoluble pellet was discarded and protein concentration was determined using Bradford reagent (BioRad). Equal amounts of protein were mixed with Laemmli sample buffer (4% SDS, 20% glycerol, 10% 2-mercaptoeftanol and 0.125M Tris-Hcl), heated at 95° C. for 5 min and loaded on an 8% polyacrylamide-SDS gel. Following electophoresis, proteins were transferred to cellulose nitrate 0.45 micrometer membranes (Schleicher & Schuell, Dassel, Germany). Loading equivalence and transfer efficiency were monitored by Ponceau S staining and the membranes were then incubated with appropriate antibodies to proteins of interest followed by horse-radish peroxidase conjugated anti-IgG antibodies. Signals were developed using Super Signal (Pierce Poxkford, USA) at 20° C. for 5 min and the membranes were then exposed to X-ray film (Fuji Tokyo, Japan) for an appropriate time and developed. Membranes were stripped using 50 mM citric acid before using a different primary antibody. The antibodies used were; Monoclonal anti human p53 (Pab 1801) (26), monoclonal anti mouse and human p53 (Pab240), monoclonal anti I-kappa-B (Santa Cruz Biotechnology, Santa Cruz, Calif., USA), monoclonal anti beta-tubulin and anti HA (Sigma Chemical, St. Louis, Mo.).
as §4
Because interleukin 6 (IL-6) and the calcium mobilizing compound thapsigargin (TG) are known to be efficient anti-apoptotic agents in M1-t-p53 cells (3, 31), the effect of these compounds on p53 stability was also investigated. […] (FIG. 6a).

[4] = test system: p53; assay: Immunoblot of p53 level in gamma irradiated normal thymocytes; assay type: cell-based, mouse; conditions: for wild-type p53 accumulation: γ-irradiated normal thymocytes, 2 h, 200 μM dicoumarol, 5 μM radicicol or 5 μM geldanamycin
Protocol: Cell extracts were prepared after 2 h and apoptosis was determined after 5 h.

[5] = test system: p53; assay: Immunoblot of p53 accumulation in 7-M12 myeloid leukemic cells; assay type: cell-based; conditions: 7-M12 cells; for accumulation of p53 following γ-irradiation or doxorubicin treatment: 2 h, 100 μM dicoumarol or 5 μM radicicol
Protocol: Immunoblot analysis was carried out using PAb 240 monoclonal anti p53 antibody and rabbit anti IκB FIG. 13a is an immunoblot of extracts from 7-M12 cells which were either not treated (none), γ-irradiated at 0.4 Gy or treated with 2.1 μM doxorubicin (Dox.). […] Cell extracts were prepared after 2 h and apoptosis was determined after 5 h.

[6] = test system: p53; assay: Proteasome inhibitor block of dicoumarol-induced p53 elimination in HCT116 cells; assay type: cell-based, human; conditions: HCT116, 4 hrs with dicoumarol; 100 micromolar MG 132 or 40 micromolar lactacystin
Protocol: FIGS. 2a-b illustrate that proteasomal degradation is responsible for the dicoumarol-induced p53 decrease in cells. […] Immunoblots were carried out as in FIG. 1.
as §5, with “Signals were developed using Super Signal (Pierce Poxkford, USA) at 20° C. for 5 min and the membranes were then exposed to X-ray film (Fuji Tokyo, Japan) for an appropriate time and developed. Membranes were stripped using 50 mM citric acid before using a different primary antibody. The antibodies used were; Monoclonal anti human p53 (Pab 1801) (26), monoclonal anti mouse and human p53 (Pab240), monoclonal anti I-kappa-B (Santa Cruz Biotechnology, Santa Cruz, Calif., USA), monoclonal anti beta-tubulin and anti HA (Sigma Chemical, St. Louis, Mo.).” left out
It is well documented that p53 accumulation is determined by the rate of its proteasomal degradation (reviewed in refs. 1,2).

[7] = test system: p53; assay: Immunoblot of p53 level in HCT116 cells treated with dicoumarol; assay type: cell-based, human; conditions: for p53 level: HCT116 cells, 400 micromolar dicoumarol; for accumulation of p53 upon γ-irradiation: HCT116 γ-irradiated at 6 Gy, 4 hrs
Protocol: Protein levels of each lane probed were calibrated by probing with monoclonal anti beta-tubulin antibody. Dic—Dicoumarol.
as §5
Blots were stripped and re-probed with monoclonal anti beta-tubulin antibody as a control for equal protein loading in each lane.
Since it is known that irradiation cause accumulation of p53 within cells, an additional event was conducted on irradiated cells. […] As expected, p53 accumulated upon γ-irradiation (compare FIG. 1b lanes 1 and 2).

[8] = test system: p53; assay: Immunoblot of p53 level in COS 1 cells expressing SV40 large T antigen; assay type: cell-based, monkey; conditions: COS 1 cells gamma irradiated at 6 Gy, up to 400 micromolar, 4 hrs
Protocol: Cell extracts were prepared by lysis of PBS-washed cells in RIPA lysis buffer [150 mM NaCl, 1% NP-40 (vol/vol), 0.5% AB-deoxycholate (DOC vol/vol), 0.1% SDS (vol/vol), 50 mM Tris-Hcl pH 8, 1 mM dithiotireitol (DTT) and 1 micogram/ml each of leupeptin, aprotinin, pepstatin (Sigma cocktail)]. The insoluble pellet was discarded and protein concentration was determined using Bradford reagent (BioRad). Equal amounts of protein were mixed with Laemmli sample buffer (4% SDS, 20% glycerol, 10% 2-mercaptoeftanol and 0.125M Tris-Hcl), heated at 95° C. for 5 min and loaded on an 8% polyacrylamide-SDS gel. Following electophoresis, proteins were transferred to cellulose nitrate 0.45 micrometer membranes (Schleicher & Schuell, Dassel, Germany). Loading equivalence and transfer efficiency were monitored by Ponceau S staining and the membranes were then incubated with appropriate antibodies to proteins of interest followed by horse-radish peroxidase conjugated anti-IgG antibodies. Signals were developed using Super Signal (Pierce Poxkford, USA) at 20° C. for 5 min and the membranes were then exposed to X-ray film (Fuji Tokyo, Japan) for an appropriate time and developed. Membranes were stripped using 50 mM citric acid before using a different primary antibody. […]

[9] = test system: normal thymocytes; assay: Apoptosis in gamma irradiated normal thymocytes; assay type: cell-based, mouse
Excerpt: as §1, §3

[10] = test system: p53; assay: Dicoumarol-induced p53 degradation in transfected p53 null HCT116 cells; assay type: cell-based, human; conditions: 5 h
Protocol: Antibodies used to probe and reprobe the blots are indicated at the left. Stripping and reprobing was as for FIGS. 8 and 9.
Transfection: Cells were seeded at 60% confluence in 6-well plates 16 h before transfection with the desired plasmids. Transfections were carried out by the calcium phosphate method followed by a 10% glycerol shock for 30 seconds, 7 h post transfection. The exact amount of plasmid used in each experiment is indicated in the corresponding figure legend. Whenever needed an empty vector was used to maintain a constant amount of 5 μg total DNA in each transfection mix. Cell extracts were generally prepared 24 h after transfection.
as §5, with “The antibodies used were; Monoclonal anti human p53 (Pab 1801) (26), monoclonal anti mouse and human p53 (Pab240), monoclonal anti I-kappa-B (Santa Cruz Biotechnology, Santa Cruz, Calif., USA), monoclonal anti beta-tubulin and anti HA (Sigma Chemical, St. Louis, Mo.).” left out

[11] = Mus musculus, 23 h, read-out: cell viability
[12] = 32° C., 6 hrs, 10 nanomolar TG or 50 ng/ml IL-6

## COC1=C2C[C@@H](C)C[C@H](OC)[C@H](O)[C@@H](C)/C=C(\C)[C@H](OC(N)=O)[C@@H](OC)/C=C\C=C(/C)C(=O)NC(=CC1=O)C2=O [geldanamycin]
[1]; [11]
  viability at 0.1 µM: 90 ± 4%
[2]
  apoptotic cells: 5±2%

## C/C=C(/C)C(=O)O[C@H]1C(C)=C2[C@H]([C@@H]1OC(=O)CCCCCCC)[C@@](C)(OC(C)=O)C[C@H](OC(=O)CCC)[C@@]1(O)[C@H]2OC(=O)[C@@]1(C)O [TG, thapsigargin]
[3]; [12]
  p53 level: did not cause a reduction in p53 level

## C[C@@H]1C[C@H]2O[C@@H]2/C=C\C=C\C(=O)Cc2c(Cl)c(O)cc(O)c2C(=O)O1 [radicicol]
[4]
  wild-type p53 accumulation: only a weak inhibition
[1]; M1-t-p53 cells cultured at 32° C., 23 h
  suppression of wild-type p53 induced apoptosis: strongly suppressed
[1]; [11]
  viability at 0.1 µM: 90 ± 4%
[3]; 32° C., 2 h, 1 μM, also after 4 h preincubation at 32° C.
  p53 level: decrease in p53 level
[3]; 32° C., 6 h incubation
  level of p53 in its wild-type form: strong decrease in the level of p53
[3]; 37° C., 6 h incubation
  level of p53 in its mutant form: strong decrease in the level of p53
[3]; 6 h incubation, same conditions
  level of Bcl-2: no change
[5]; 5 μM radicicol versus 100 μM dicoumarol
  inhibition of p53 accumulation relative to dicoumarol: stronger effect
[5]
  accumulation of p53 following γ-irradiation or doxorubicin treatment: inhibited
[2]
  apoptotic cells: 5±2%
[2]; thymocytes
  suppression of dexamethasone induced apoptosis: strongly suppressed

## CC(C)C[C@@H](C=O)NC(=O)[C@H](CC(C)C)NC(=O)[C@H](CC(C)C)NC(=O)OCc1ccccc1 [MG132] (Cbz-Leu-Leu-Leu-aldehyde)
[6]
  block of dicoumarol-induced p53 elimination: completely blocked

## CC(=O)N[C@@H](CSC(=O)[C@]1([C@@H](O)C(C)C)NC(=O)[C@H](C)[C@@H]1O)C(=O)O [lactacystin]
[6]
  block of dicoumarol-induced p53 elimination: completely blocked

## O=c1oc2ccccc2c(O)c1Cc1c(O)c2ccccc2oc1=O [dicoumarol, 13-3′-methylene bis (4-hydroxycoumarin)]
[7]; HCT116, same conditions as the p53 blots (specificity control)
  level of beta-tubulin: unaffected
[7]; 90 min
  p53 level: significant reduction in p53 level
[7]; 180 min
  p53 level: almost complete elimination of p53
[7]; 200 micromolar
  accumulation of p53 upon γ-irradiation: reduced
[7]; 400 micromolar
  accumulation of p53 upon γ-irradiation: further reduced
[8]
  p53 level: not reduced
[9]; 4 Gy gamma irradiated thymocytes, 100 and 200 micromolar, 5 hrs, dose dependent
  induction of apoptosis (morphology and DNA fragmentation): inhibited induction of apoptosis
[9]; 4 Gy gamma irradiated thymocytes, 200 micromolar
  inhibition of apoptosis: Complete inhibition of apoptosis
[9]; γ-irradiated normal thymocytes, 5 h, 200 μM dicoumarol or 5 μM hsp90 inhibitor
  induction of apoptosis: completely inhibited
[4]; 4 Gy gamma irradiated thymocytes, 100 and 200 micromolar, 5 hrs
  level of p53: decrease in the level of p53
[4]
  wild-type p53 accumulation: completely inhibited
[1]; M1-t-p53 cells, 32° C., 23 hrs, 75 or 100 micromolar
  cell survival compared to cells without dicoumarol: increase in cell survival
[1]; Mus musculus, read-out: cell viability
  viability at 75 µM: 52 ± 4%
[3]; 32° C., 6 hrs, 100 micromolar
  level of I-kappa-B: did not affect
[3]; 32° C., 16 hrs, 75 or 100 micromolar dicoumarol
  p53 level: reduced
[3]; 37° C., 6 hrs, 100 micromolar
  degradation of I-kappa-B or beta-tubulin: not of I-kappa-B or beta-tubulin
  degradation of mutant p53: induce degradation of p53
[10]; p53 null HCT116 co-transfected with p53 and LT, 300 μM
  dicoumarol induced p53 degradation: resistant to dicoumarol induced p53 degradation
[10]; p53 null HCT116 transfected only with p53, 300 μM
  dicoumarol induced p53 degradation: sensitive to dicoumarol induced p53 degradation
[10]; transfected p53 null HCT116, 300 μM
  levels of Mdm-2 and LT: not affected
[5]
  accumulation of p53 following γ-irradiation or doxorubicin treatment: inhibited

B1: IL6: interleukin 6, anti-apoptotic agent in M1-t-p53 cells (protein, UniProt P08505 25-211, looked up)
Interleukin-6: FPTSQVRRGDFTEDTTPNRPVYTTSQVGGLITHVLWEIVEMRKELCNGNSDCMNNDDALAENNLKLPEIQRNDGCYQTGYNQEICLLKISSGLLEYHSYLEYMKNNLKDNKKDKARVLQRDTETLIHIFNQEVKDLHKIVLPTPISNALLTDKLESQKEWLRTKTIQFILKSLEEFLKVTLRSTRQT
[3]; [12]
  p53 level: did not cause a reduction in p53 level
